ChEMBL document CHEMBL4888484, “Replenishing the malaria drug discovery pipeline: Screening and hit evaluation of the MMV Hit Generation Library 1 (HGL1) against asexual blood stage Plasmodium falciparum ,using a nano luciferase reporter read-out” (2022)
pIC50: −log10 of the molar value.

Tests used:
Plasmodium falciparum [1] = assay: Hit confirmation in dose-response curve in NF54 nanoGlo assay, at 72h; format: functional, organism-based, Erythrocyte; parameters: timepoint 72 hour; conditions: Plasmodium falciparum, NF54, Erythrocyte, 72 h
Plasmodium falciparum [2] = assay: Hit confirmation in dose-response curve in NF54 pLDH assay, at 72h; format: functional, organism-based; parameters: timepoint 72 hour; conditions: NF54, Erythrocyte
Plasmodium falciparum [3] = assay: Hit confirmation in dose-response curve in Dd2 pLDH assay, at 72h; format: functional, organism-based; parameters: timepoint 72 hour; conditions: Dd2, Erythrocyte
Plasmodium falciparum [4] = assay: Hit confirmation in dose-response curve in NF54 nanoGlo assay, at 12h; format: functional, organism-based, Erythrocyte; parameters: timepoint 12 hour; conditions: Plasmodium falciparum, NF54, Erythrocyte, 12 h
[5] = Hit confirmation in dose-response curve in HepG2 cytotoxicity assay, at 72h; format: toxicity, cell-based; parameters: timepoint 72 hour; conditions: human, HepG2 cells
Plasmodium falciparum [6] = assay: Re-testing in dose-response curve in 3D7 pLDH assay, at 72h; format: functional, organism-based; parameters: timepoint 72 hour; conditions: 3D7, Erythrocyte
[7] = Re-testing in dose-response curve in HepG2 cytotoxicity assay, at 72h; format: toxicity, cell-based; parameters: timepoint 72 hour; conditions: human, HepG2 cells

Question: With `N#Cc1cc(S(=O)(=O)NCCN(C2CC2)S(=O)(=O)c2ccc(Cl)c(C#N)c2)ccc1Cl` as the compound, how does the pIC50 (Plasmodium falciparum [1]) read?
Answer: 5.69

Question: What about the pIC50 (Plasmodium falciparum [2]) of the same compound?
Answer: 5.48

Question: What about the pIC50 (Plasmodium falciparum [3]) of the same compound?
Answer: 5.70

Question: What about the pIC50 (Plasmodium falciparum [4]) of the same compound?
Answer: 5.55

Question: And the IC50 at 72 h [5]?
Answer: > 10000 nM

Question: What about the pIC50 (Plasmodium falciparum [6]) of the same compound?
Answer: 5.96

Question: What about the IC50 at 72 h [7] of the same compound?
Answer: 13600 nM

Question: What does the source list for `Clc1cccc(CNCCCNc2ccncc2)c1Cl`?
Answer: pIC50 (Plasmodium falciparum [1]): 5.70; pIC50 (Plasmodium falciparum [2]): 5.70; pIC50 (Plasmodium falciparum [3]): 5.81; pIC50 (Plasmodium falciparum [4]): 5.12; IC50 at 72 h [5]: > 10000 nM; pIC50 (Plasmodium falciparum [6]): 5.94; IC50 at 72 h [7]: 16300 nM

Question: Which results are given for `CCC1=C(c2ccc(C)cc2)S(=O)(=O)N=C1N1CCC(C(=O)NCCN2CCCC[C@@H]2C)CC1`?
Answer: pIC50 (Plasmodium falciparum [1]): 5.57; pIC50 (Plasmodium falciparum [2]): 5.87; pIC50 (Plasmodium falciparum [3]): 5.85; pIC50 (Plasmodium falciparum [4]): < 5.00; IC50 at 72 h [5]: > 10000 nM; pIC50 (Plasmodium falciparum [6]): 6.28; IC50 at 72 h [7]: > 25000 nM

Question: With `COc1ccc(-c2cc(C(=O)N[C@H]3CCN(c4ccc(=O)n(C)n4)C3)c(C)n2C)cc1` as the compound, how does the pIC50 (Plasmodium falciparum [1]) read?
Answer: 5.98

Question: What about the pIC50 (Plasmodium falciparum [2]) of the same compound?
Answer: 5.44

Question: What about the pIC50 (Plasmodium falciparum [3]) of the same compound?
Answer: 6.10

Question: And the pIC50 (Plasmodium falciparum [4])?
Answer: < 5.00

Question: What about the IC50 at 72 h [5] of the same compound?
Answer: > 10000 nM

Question: What about the pIC50 (Plasmodium falciparum [6]) of the same compound?
Answer: 6.46

Question: What about the IC50 at 72 h [7] of the same compound?
Answer: > 25000 nM

Question: With `Oc1ccccc1-c1cnc(C(F)(F)F)s1` as the compound, how does the pIC50 (Plasmodium falciparum [1]) read?
Answer: 6.11

Question: What about the pIC50 (Plasmodium falciparum [2]) of the same compound?
Answer: 5.98

Question: And the pIC50 (Plasmodium falciparum [3])?
Answer: 5.99

Question: And the pIC50 (Plasmodium falciparum [4])?
Answer: 5.88

Question: What about the IC50 at 72 h [5] of the same compound?
Answer: > 10000 nM

Question: And the pIC50 (Plasmodium falciparum [6])?
Answer: 5.30

Question: And the IC50 at 72 h [7]?
Answer: 19400 nM

Question: With `Oc1ccccc1CCN[C@H]1CCc2ccc(F)cc21` as the compound, how does the pIC50 (Plasmodium falciparum [1]) read?
Answer: 6.71

Question: And the pIC50 (Plasmodium falciparum [2])?
Answer: 6.51

Question: What about the pIC50 (Plasmodium falciparum [3]) of the same compound?
Answer: 6.57

Question: What about the pIC50 (Plasmodium falciparum [4]) of the same compound?
Answer: 6.59

Question: What about the IC50 at 72 h [5] of the same compound?
Answer: > 10000 nM

Question: And the pIC50 (Plasmodium falciparum [6])?
Answer: 6.37

Question: What about the IC50 at 72 h [7] of the same compound?
Answer: > 25000 nM

Question: With `Cc1ccc2c(c1)CCCN2C(=O)CN1CC=C(c2cnn(C)c2)CC1` as the compound, how does the pIC50 (Plasmodium falciparum [1]) read?
Answer: 5.43

Question: And the pIC50 (Plasmodium falciparum [2])?
Answer: 5.42

Question: What about the pIC50 (Plasmodium falciparum [3]) of the same compound?
Answer: 5.76

Question: What about the pIC50 (Plasmodium falciparum [4]) of the same compound?
Answer: < 5.00

Question: What about the IC50 at 72 h [5] of the same compound?
Answer: > 10000 nM

Question: And the pIC50 (Plasmodium falciparum [6])?
Answer: 6.11

Question: And the IC50 at 72 h [7]?
Answer: > 25000 nM

Question: Which results are given for `CCOc1cccc(-c2ccc3nc(-c4cccc(OC)c4)c(CCC(=O)NCCN4CCCC4)n3c2)c1`?
Answer: pIC50 (Plasmodium falciparum [1]): 6.51; pIC50 (Plasmodium falciparum [2]): 6.55; pIC50 (Plasmodium falciparum [3]): 5.92; pIC50 (Plasmodium falciparum [4]): 5.14; IC50 at 72 h [5]: > 10000 nM; pIC50 (Plasmodium falciparum [6]): 7.26; IC50 at 72 h [7]: 15900 nM

Question: With `CN(CCNC(=O)CCc1cn(-c2ccccc2)nc1-c1ccc2c(c1)OCO2)C1CCCCC1` as the compound, how does the pIC50 (Plasmodium falciparum [1]) read?
Answer: 5.83

Question: What about the pIC50 (Plasmodium falciparum [2]) of the same compound?
Answer: 5.48

Question: And the pIC50 (Plasmodium falciparum [3])?
Answer: 5.83

Question: What about the pIC50 (Plasmodium falciparum [4]) of the same compound?
Answer: < 5.00

Question: What about the IC50 at 72 h [5] of the same compound?
Answer: > 10000 nM

Question: And the pIC50 (Plasmodium falciparum [6])?
Answer: 6.26

Question: What about the IC50 at 72 h [7] of the same compound?
Answer: ~9240 nM

Question: Which results are given for `CCOC(=O)c1c(CN2CCCC2)n(C)c2cc(-c3cccnc3)c(O)c(Cn3ccnc3)c12`?
Answer: pIC50 (Plasmodium falciparum [1]): 6.84; pIC50 (Plasmodium falciparum [2]): 6.76; pIC50 (Plasmodium falciparum [3]): 6.88; pIC50 (Plasmodium falciparum [4]): < 5.00; IC50 at 72 h [5]: > 10000 nM; pIC50 (Plasmodium falciparum [6]): 5.44; IC50 at 72 h [7]: > 25000 nM

Question: With `CC1(C)OCc2cc(CNc3ccc4oc(=O)[nH]c4c3)ccc2O1` as the compound, how does the pIC50 (Plasmodium falciparum [1]) read?
Answer: 6.26

Question: And the pIC50 (Plasmodium falciparum [2])?
Answer: 6.12

Question: What about the pIC50 (Plasmodium falciparum [3]) of the same compound?
Answer: 6.18

Question: What about the pIC50 (Plasmodium falciparum [4]) of the same compound?
Answer: 6.07

Question: And the IC50 at 72 h [5]?
Answer: > 10000 nM

Question: What about the pIC50 (Plasmodium falciparum [6]) of the same compound?
Answer: 6.57

Question: And the IC50 at 72 h [7]?
Answer: 20400 nM

Question: With `Cc1nc(N)nc(C)c1C(=O)Nc1ccc(Nc2ncccn2)cc1` as the compound, how does the pIC50 (Plasmodium falciparum [1]) read?
Answer: 5.83

Question: And the pIC50 (Plasmodium falciparum [2])?
Answer: 5.75

Question: What about the pIC50 (Plasmodium falciparum [3]) of the same compound?
Answer: 5.77

Question: And the pIC50 (Plasmodium falciparum [4])?
Answer: < 5.00

Question: What about the IC50 at 72 h [5] of the same compound?
Answer: > 10000 nM

Question: What about the pIC50 (Plasmodium falciparum [6]) of the same compound?
Answer: 5.84

Question: And the IC50 at 72 h [7]?
Answer: > 25000 nM

Question: With `CN(C)Cc1ccc(NC(=O)c2cc(F)cc3c(=O)c4cc(F)ccc4[nH]c23)cc1` as the compound, how does the pIC50 (Plasmodium falciparum [1]) read?
Answer: 6.28

Question: And the pIC50 (Plasmodium falciparum [2])?
Answer: 5.92

Question: What about the pIC50 (Plasmodium falciparum [3]) of the same compound?
Answer: 6.15

Question: What about the pIC50 (Plasmodium falciparum [4]) of the same compound?
Answer: < 5.00

Question: What about the IC50 at 72 h [5] of the same compound?
Answer: > 10000 nM

Question: And the pIC50 (Plasmodium falciparum [6])?
Answer: ~6.42

Question: What about the IC50 at 72 h [7] of the same compound?
Answer: 2860 nM

Question: With `COc1cccc(-c2cc(O)cc(CC[C@H]3CCCCN3)c2)n1` as the compound, how does the pIC50 (Plasmodium falciparum [1]) read?
Answer: 5.91

Question: And the pIC50 (Plasmodium falciparum [2])?
Answer: 5.74

Question: And the pIC50 (Plasmodium falciparum [3])?
Answer: 5.81

Question: And the pIC50 (Plasmodium falciparum [4])?
Answer: 5.76

Question: What about the IC50 at 72 h [5] of the same compound?
Answer: > 10000 nM

Question: And the pIC50 (Plasmodium falciparum [6])?
Answer: 5.89

Question: And the IC50 at 72 h [7]?
Answer: > 25000 nM

Question: With `COc1ccc(CC(=O)Nc2cc(C)n(-c3cccc(Cl)c3)n2)cc1` as the compound, how does the pIC50 (Plasmodium falciparum [1]) read?
Answer: 5.81

Question: And the pIC50 (Plasmodium falciparum [2])?
Answer: 5.55

Question: And the pIC50 (Plasmodium falciparum [3])?
Answer: 5.81

Question: What about the pIC50 (Plasmodium falciparum [4]) of the same compound?
Answer: 5.19

Question: What about the IC50 at 72 h [5] of the same compound?
Answer: > 10000 nM

Question: What about the pIC50 (Plasmodium falciparum [6]) of the same compound?
Answer: 6.12

Question: What about the IC50 at 72 h [7] of the same compound?
Answer: > 25000 nM
